Source: US8673983B2, “Melanins synthesized chemically or via enzyme catalysis” (priority 2007, dated 2014)
≈ marks a conversion by molar mass, not a printed value.

Tests used:
[1] = test system: PPO enzyme (E.C. 1.10.3.1) from banana (Musa sapientum) skin; assay: test of potential melanogenic substrates of banana PPO (pigment formation vs blank); format: biochemical; conditions: pH 7
[2] = physchem; conditions: 30 °C, pH 7, aqueous buffer, thermodynamic from solid
[3] = test system: HSV-1; assay: microbe, parasite or virus in culture; format: cell-based; conditions: Human alphaherpesvirus 1, HFF, read-out: ACV EC50
[4] = test system: HSV-2; assay: microbe, parasite or virus in culture; format: cell-based; conditions: Human alphaherpesvirus 2, HFF, read-out: ACV EC50
[5] = in vitro; conditions: human
[6] = test system: cultured human foreskin fibroblasts

O=C(O)c1ccc(O)c(O)c1 [Protocatechuric acid, 3,4-dihydroxybenzoic acid]
PPO Substrate [1]: Y
solubility [2]: > 2000 µg/mL

O=C1c2ccccc2C(=O)c2c1ccc(O)c2O [Alizarin, 1,2-dihydroxy-anthraquinone]
PPO Substrate [1]: Y
solubility [2]: < 2000 µg/mL

O=c1ccc2cc(O)c(O)cc2o1 [Esculetin, 6,7 Dihydroxvcoumarin]
PPO Substrate [1]: Y
solubility [2]: < 2000 µg/mL

O=C(O)C=Cc1ccc(O)c(O)c1 [Caffeic acid, 3,4-dihydroxycinnamic acid]
solubility [2]: > 2000 µg/mL

O=c1c(O)c(-c2ccc(O)c(O)c2)oc2cc(O)cc(O)c12 [Quercetin, 2-(3,4-dihydroxyphenyl)-3,5,7-trihydroxy-4H-1-benzopyran-4-one]
solubility [2]: < 2000 µg/mL

NCCc1c[nH]c2ccc(O)cc12 [Serotonin, 5-hydroxytryptamine]
PPO Substrate [1]: Y

5,6,7 trihydroxyflavanone [Baicalein]
PPO Substrate [1]: Y

O=C(O)Cc1ccc(O)c(O)c1 [DOPAC, 3,4-dihydroxyphenylacetic acid]
solubility [2]: > 2000 µg/mL

Nc1nc2c(ncn2COCCO)c(=O)[nH]1 [ACV, Acyclovir]
EC50 [3]: 1.1 µg/mL (≈ 0.00488 mM)
EC50 [4]: 1.4 µg/mL (≈ 0.00622 mM)
CC50 [5]: > 100 µg/mL

Nc1nc(O)c2ncn(COC(CO)CO)c2n1 [GCV, ganciclovir]
CC50 [5]: > 100 µg/mL

Oc1cccc(O)c1O [Pyrogallol, 1,2,3-trihydroxvbenzene]
solubility [2]: < 2000 µg/mL

O=C(O)c1cc(O)c(O)c(O)c1 [Gallic acid, 3,4,5-trihydroxybenzoic acid]
solubility [2]: < 2000 µg/mL

Nordihydroguaiuretic acid
Toxicity [6]: N
